Source: patent publication US20250127695A1, “Use of Branched Medium-Chain Glycerol Ethers as Active Antidandruff Ingredients” (Henkel AG & Co. KGaA, priority 2022, published 2025)

Legend:
[1] = tested on: barrier markers (transglutaminase1, filaggrin, decorin, involucrin, and loricrin); assay: gene expression of barrier markers in in vitro tests on artificial skin models; type: cell-based; conditions: various concentrations, FIG. 2
Source text: The gene expression of all investigated barrier markers (transglutaminase1, filaggrin, decorin, involucrin, and loricrin) was reduced by the treatment.

[2] = tested on: interleukin 8
[3] = tested on: Malassezia furfur; assay: quantitative suspension test of Malassezia furfur; type: cell-based; conditions: incubation ≤60 min at 37° C. in a buffer solution, FIG. 1
Method: The efficacy against dandruff was investigated by is of a suspension test. Various formulations were incubated for a certain time (≤60 min) together with the yeast Malassezia furfur, which was present in cell counts of 10^5-10^6 CFU/mL, at 37° C. in a buffer solution.
After incubation, the cell count of the yeast was determined by is of a culture method (growth on Sabouraud Agar). The difference between this value and the respective initial value is a measure of the microbicidal efficacy of the respective anti-dandruff compound.
One of the causes of dandruff formation is the excessive growth of various microorganisms on the scalp. Yeasts of the genus Malassezia play a particularly important role here. The growth-inhibiting effect of various anti-dandruff compounds in this experiment therefore indicates anti-dandruff efficacy (FIG. 1).

| SMILES | gene expression of barrier markers (transglutaminase1, filaggrin, decorin, involucrin, loricrin) [1] | release of interleukin 8 (inflammatory marker) [2] | microbicidal efficacy against Malassezia (cell count of the yeast after incubation vs initial value) [3] |
| --- | --- | --- | --- |
| Cc1cc(CC(C)CC(C)(C)C)n(O)c(=O)c1.NCCO (stereo not shown) [Octopirox, Piroctone Olamine] | reduced | does not negatively influence the release of inflammatory markers | – |
| CCCCCCC(C)OCC(O)CO (stereo not shown) [methylheptyl glycerin] | did not lead to a significant decrease in gene expression | – | killing effect on the Malassezia fungus |
